Measured values from ChEMBL document CHEMBL1201862, “PubChem BioAssay data set” (2004).
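The compound was tested at five concentrations on cells cultured in 96-well plates, with a 48-hour exposure period. Abbreviation: GI50, concentration required for 50% inhibition of growth.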 Active and inactive are the calls of the source. Cut-off read from the data, not from the text of the source: active = GI50 up to about 1.1 µM and inactive = higher.

How the values were obtained:
Test in all cases: NCI anticancer screen, dose series, 48 h
[1] = test system: Hs-578T
[2] = test system: ACHN
[3] = test system: RXF 393
[4] = test system: RPMI-8226
[5] = test system: SF-539
[6] = test system: HL-60
[7] = test system: SK-OV-3
[8] = test system: LOX IMVI
[9] = test system: NCI-H226
[10] = test system: SNB-75
[11] = test system: OVCAR-8
[12] = test system: MCF7
[13] = test system: PC-3
[14] = test system: NCI/ADR-RES
[15] = test system: HOP-92
[16] = test system: SK-MEL-5
[17] = test system: T47D
[18] = test system: SR
[19] = test system: TK-10
[20] = test system: K562

| Compound | GI50 [1] | GI50 [2] | GI50 [3] | GI50 [4] | GI50 [5] | GI50 [6] | GI50 [7] | GI50 [8] | GI50 [9] | GI50 [10] | GI50 [11] | GI50 [12] | GI50 [13] | GI50 [14] | GI50 [15] | GI50 [16] | GI50 [17] | GI50 [18] | GI50 [19] | GI50 [20] |
| --- | --- | --- | --- | --- | --- | --- | --- | --- | --- | --- | --- | --- | --- | --- | --- | --- | --- | --- | --- | --- |
| CCCCCCCc1c(Cl)nc(Cl)nc1Cl | 6.28 µM (inactive) | 8.61 µM (inactive) | 2.47 µM (inactive) | 2.84 µM (inactive) | 9.82 µM (inactive) | 2.45 µM (inactive) | 7.43 µM (inactive) | 1.45 µM (inactive) | 2.04 µM (inactive) | 14.6 µM (inactive) | 2.36 µM (inactive) | 10.4 µM (inactive) | 8.28 µM (inactive) | 4.26 µM (inactive) | 4.5 µM (inactive) | 4.31 µM (inactive) | 12.2 µM (inactive) | 0.604 µM (active) | 13.6 µM (inactive) | 2.06 µM (inactive) |
| Nc1cccc(/C=C/CN2CCN(CCOC(c3ccccc3)c3ccccc3)CC2)c1 | 21.8 µM (inactive) | 17.9 µM (inactive) | 12.3 µM (inactive) | 3 µM (inactive) | 16.7 µM (inactive) | 5.05 µM (inactive) | 14.1 µM (inactive) | 15.6 µM (inactive) | 21.2 µM (inactive) | 10.5 µM (inactive) | 16 µM (inactive) | 13.8 µM (inactive) | 14.8 µM (inactive) | 14.3 µM (inactive) | 12.6 µM (inactive) | 12.6 µM (inactive) | 8 µM (inactive) | 4.61 µM (inactive) | 15.8 µM (inactive) | 3.11 µM (inactive) |
| Cc1ccc2c(c1)CC1(Cc3cccc(C)c3C1=O)C2=O (stereo not given) | 96.8 µM (inactive) | > 100 µM (inactive) | > 100 µM (inactive) | > 100 µM (inactive) | > 100 µM (inactive) | 38.3 µM (inactive) | 88.5 µM (inactive) | > 10 µM (inactive) | > 100 µM (inactive) | > 100 µM (inactive) | > 100 µM (inactive) | > 10 µM (inactive) | > 100 µM (inactive) | > 100 µM (inactive) | 50.7 µM (inactive) | 32.3 µM (inactive) | > 10 µM (inactive) | 79.8 µM (inactive) | > 100 µM (inactive) | 39.4 µM (inactive) |
| C/C(=C/CNc1ncnc2c1ncn2CCC#N)CO | > 100 µM (inactive) | > 100 µM (inactive) | > 100 µM (inactive) | > 100 µM (inactive) | > 100 µM (inactive) | > 100 µM (inactive) | > 100 µM (inactive) | > 100 µM (inactive) | > 100 µM (inactive) | > 100 µM (inactive) | > 100 µM (inactive) | > 100 µM (inactive) | > 100 µM (inactive) | > 100 µM (inactive) | > 100 µM (inactive) | > 100 µM (inactive) | > 100 µM (inactive) | > 100 µM (inactive) | > 100 µM (inactive) | > 100 µM (inactive) |
| Cc1ccc(S[C@@H](C)[C@@](O)(C(N)=O)c2ccccc2)cc1 | > 100 µM (inactive) | 68.5 µM (inactive) | 86.1 µM (inactive) | 21.7 µM (inactive) | 25.6 µM (inactive) | 37.3 µM (inactive) | > 100 µM (inactive) | 14.7 µM (inactive) | 64.4 µM (inactive) | > 100 µM (inactive) | 38.5 µM (inactive) | 44.8 µM (inactive) | 35.4 µM (inactive) | 19.9 µM (inactive) | 18.7 µM (inactive) | 20.6 µM (inactive) | 26.7 µM (inactive) | > 10 µM (inactive) | > 100 µM (inactive) | 15 µM (inactive) |
| COC(=O)/C=C\C(C#N)(C#N)/N=C/c1ccc(C)s1 | 21.8 µM (inactive) | 1.67 µM (inactive) | 1.46 µM (inactive) | 1.9 µM (inactive) | 4.63 µM (inactive) | 2.29 µM (inactive) | 15 µM (inactive) | 1.67 µM (inactive) | 16.7 µM (inactive) | 3.12 µM (inactive) | 3.69 µM (inactive) | 1.49 µM (inactive) | 2.63 µM (inactive) | 5.92 µM (inactive) | 1.64 µM (inactive) | 6.92 µM (inactive) | 1.58 µM (inactive) | 2.08 µM (inactive) | 1.97 µM (inactive) | 0.998 µM (active) |
| Cc1cc2c(c(O)c1-c1c(C)cc(O)c3c1C(=O)C=CC3=O)C(=O)C=CC2=O | 3.07 µM (inactive) | 0.388 µM (active) | 0.757 µM (active) | 0.226 µM (active) | 2.88 µM (inactive) | < 0.01 µM (active) | 15.6 µM (inactive) | 1.11 µM (active) | 20.2 µM (inactive) | 5.5 µM (inactive) | 1.95 µM (inactive) | 0.966 µM (active) | 4.02 µM (inactive) | 2.49 µM (inactive) | 0.413 µM (active) | 4.01 µM (inactive) | 1.34 µM (inactive) | 0.043 µM (active) | 0.855 µM (active) | 0.0337 µM (active) |
| Cc1nc2ccc(S(=O)(=O)Nc3ccccn3)cc2c(=O)n1NS(=O)(=O)c1ccccn1 | > 100 µM (inactive) | > 100 µM (inactive) | > 100 µM (inactive) | > 100 µM (inactive) | > 100 µM (inactive) | > 100 µM (inactive) | > 100 µM (inactive) | > 100 µM (inactive) | > 100 µM (inactive) | > 100 µM (inactive) | > 100 µM (inactive) | > 100 µM (inactive) | > 100 µM (inactive) | > 100 µM (inactive) | > 100 µM (inactive) | > 100 µM (inactive) | > 100 µM (inactive) | > 100 µM (inactive) | > 100 µM (inactive) | > 100 µM (inactive) |
| COC(=O)c1ccccc1CC1Cc2ccc3c(c2C1)CCC3 (stereo not given) | 37 µM (inactive) | 30.5 µM (inactive) | 19.1 µM (inactive) | 18.1 µM (inactive) | 56.2 µM (inactive) | 13.9 µM (inactive) | 32.7 µM (inactive) | 16 µM (inactive) | 35.1 µM (inactive) | 25.8 µM (inactive) | 34.5 µM (inactive) | 14.3 µM (inactive) | 29.2 µM (inactive) | 21 µM (inactive) | 20.1 µM (inactive) | 22.1 µM (inactive) | 22.9 µM (inactive) | 5.38 µM (inactive) | 21.3 µM (inactive) | 29.6 µM (inactive) |
| Cc1cc(C)n(C(=O)CSc2nc3ccc(I)cc3c(=O)n2Cc2ccccc2)n1 | 20 µM (inactive) | 44.5 µM (inactive) | 26.9 µM (inactive) | > 100 µM (inactive) | 86.9 µM (inactive) | > 100 µM (inactive) | 58.9 µM (inactive) | > 100 µM (inactive) | 62.7 µM (inactive) | 25.3 µM (inactive) | 24.9 µM (inactive) | 96.6 µM (inactive) | 22.1 µM (inactive) | 36.6 µM (inactive) | 15.5 µM (inactive) | 25.2 µM (inactive) | 23.2 µM (inactive) | > 100 µM (inactive) | 41.6 µM (inactive) | > 100 µM (inactive) |
| CCOP(=O)(OCC)C(Nc1cccc(F)c1)c1ccc(N(C)C)cc1 (stereo not given) | > 100 µM (inactive) | > 100 µM (inactive) | > 100 µM (inactive) | 67.6 µM (inactive) | > 100 µM (inactive) | 45.7 µM (inactive) | > 100 µM (inactive) | 70.5 µM (inactive) | > 100 µM (inactive) | > 100 µM (inactive) | > 100 µM (inactive) | > 100 µM (inactive) | 62.1 µM (inactive) | 81.8 µM (inactive) | 18 µM (inactive) | 71 µM (inactive) | 34.8 µM (inactive) | > 100 µM (inactive) | > 100 µM (inactive) | 49.1 µM (inactive) |
| CCCC(CC)c1cc(O)c(O)cc1C(CC)CCC (stereo not given) | > 10 µM (inactive) | > 10 µM (inactive) | > 10 µM (inactive) | > 10 µM (inactive) | > 10 µM (inactive) | > 10 µM (inactive) | > 10 µM (inactive) | > 10 µM (inactive) | > 10 µM (inactive) | > 10 µM (inactive) | > 10 µM (inactive) | > 10 µM (inactive) | > 10 µM (inactive) | > 10 µM (inactive) | > 10 µM (inactive) | > 10 µM (inactive) | > 10 µM (inactive) | > 10 µM (inactive) | > 10 µM (inactive) | > 10 µM (inactive) |
| CCC1CN2CCc3c([nH]c4ccccc34)[C@@](C(=O)OC)(c3cc4c(cc3OC)N(C)C3C(O)(C(=O)OC)C(C(=O)OC)C5(CC)C=CCN6CCC43C65)C[C@@H](C2)[C@@H]1C(C)(C)C (stereo not given in full) | 0.463 µM (active) | 0.6 µM (active) | 0.285 µM (active) | 0.469 µM (active) | 0.381 µM (active) | 0.305 µM (active) | 1 µM (active) | 0.34 µM (active) | 0.267 µM (active) | 0.337 µM (active) | 0.5 µM (active) | 0.461 µM (active) | 0.286 µM (active) | 2.75 µM (inactive) | 1.03 µM (active) | 0.274 µM (active) | 0.687 µM (active) | 0.473 µM (active) | 1.09 µM (active) | 0.334 µM (active) |
| COC(=O)c1cc(C(=CCC[C@H]2CC[C@@]3(C)C(CCC4C3CC[C@@]3(C)C4CC[C@@H]3C(C)CCCC(C)C)C2)c2cc(Cl)c(O)c(C(=O)OC)c2)cc(Cl)c1O (stereo not given in full) | > 10 µM (inactive) | > 10 µM (inactive) | > 10 µM (inactive) | > 10 µM (inactive) | > 10 µM (inactive) | > 10 µM (inactive) | > 10 µM (inactive) | > 10 µM (inactive) | > 10 µM (inactive) | > 10 µM (inactive) | > 10 µM (inactive) | > 10 µM (inactive) | > 10 µM (inactive) | > 10 µM (inactive) | > 10 µM (inactive) | > 10 µM (inactive) | > 10 µM (inactive) | > 10 µM (inactive) | > 10 µM (inactive) | > 10 µM (inactive) |
